# What was measured:
# 5-Lipoxygenase = target: T1, 5-Lipoxygenase (Homo sapiens, UniProt P09917); test: Inhibition of 5-Lipoxygenase in Human Whole Blood (LTB4, calcium ionophore A23187); format: cell-based; conditions: 1 μM
# T1 construct: endogenous in cells; host or cells: human whole blood from male donors (results expressed per 10^6 neutrophils)
# T1 sequence (P09917 1-674): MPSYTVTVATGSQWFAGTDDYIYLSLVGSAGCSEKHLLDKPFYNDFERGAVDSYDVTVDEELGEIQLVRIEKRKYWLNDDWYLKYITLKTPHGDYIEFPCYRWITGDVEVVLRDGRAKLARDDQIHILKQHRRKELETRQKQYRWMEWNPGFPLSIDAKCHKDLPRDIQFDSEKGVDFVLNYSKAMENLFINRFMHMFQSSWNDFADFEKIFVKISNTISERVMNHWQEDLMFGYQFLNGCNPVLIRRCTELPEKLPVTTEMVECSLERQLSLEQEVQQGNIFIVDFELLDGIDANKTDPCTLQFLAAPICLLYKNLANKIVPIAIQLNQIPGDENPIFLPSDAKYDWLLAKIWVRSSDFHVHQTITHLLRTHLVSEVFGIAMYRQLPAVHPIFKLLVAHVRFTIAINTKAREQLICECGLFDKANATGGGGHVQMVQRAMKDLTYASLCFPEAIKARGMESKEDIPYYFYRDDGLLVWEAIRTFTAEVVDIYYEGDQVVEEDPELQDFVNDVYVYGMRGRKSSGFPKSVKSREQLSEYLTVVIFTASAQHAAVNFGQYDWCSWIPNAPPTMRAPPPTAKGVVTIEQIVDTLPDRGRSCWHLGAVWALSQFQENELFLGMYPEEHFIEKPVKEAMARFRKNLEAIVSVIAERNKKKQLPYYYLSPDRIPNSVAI
# Experimental: 1. Inhibition of 5-Lipoxygenase in Human Whole Blood
# Blood is obtained in 50-100 ml quantities from male donors. White blood cell counts and differentials are made. Two ml of blood are placed in a 15 ml polypropylene test tube. Test compounds are solubilized in dimethylsulfoxide and diluted in 1:10 in 10% bovine serum albumin in phosphate buffered saline, pH 7.4 resulting in a final dimethylsulfoxide concentration of 0.1% in the blood. Then, solutions of test compounds are added to the blood in a shaking water bath at 37° C. for 10 minutes prior to the addition of 30 μM calcium ionophore (A23 187, Sigma). After ionophore administration, whole blood samples are mixed and incubated for 20 minutes at 37° C. in a shaking water bath. Incubation is terminated by placing samples in an ice bath and immediately adding ethylene glycol-bis-(β-aminoethyl ether)-N,N,N',N'-tetraaceticacid (10 mM). Samples are mixed and centrifuged at 1200 x g for 15 minutes at 4° C. Preparation of samples for evaluation by RIA or ELISA is carried out by the following protocol. Plasma is removed from sample tubes, placed in 15 ml polypropylene test tubes containing 8 ml methanol, and then vortexed to precipitate protein. Samples are stored at -70° C. overnight. The next day, samples are centrifuged at 200 x g for 15 minutes at 4° C. to pellet the precipitate. Samples are dried in a Savant SpeedVac Concentrator, Model SVC 200H, reconstituted to original volume with ice cold RIA or ELISA buffer, and stored at -70° C. until assayed. The assay for eicosanoids (LTB4, TxB2, and PGE2) is performed as described by the manufacturer of the [^3 H]-RIA kit or ELISA kit (LTB4 -Amersham, TxB2 and PGE2 -Caymen Chemical).
# The total eicosanoid level in 2 ml of blood is calculated and reported as ng/10^6 neutrophils. Significance is determined by a one-way analysis of variance with least significant difference (LSD) comparisons to control (p≤0.05) and IC50 's (μM) are determined by regression analysis (Finney, 1978). Drug effects are expressed as percent change from control values.
# Lipoxygenase = test: Ex-Vivo Measurement of Lipoxygenase Inhibition in Orally Dosed Rats (LTB4); set-up: species or system rat (male Sprague Dawley); conditions: p.o., pretreatment period 6 hr
# Experimental: 2. Ex-Vivo Measurement of Lipoxygenase Inhibition in Orally Dosed Rats
# Male Sprague Dawley rats (Charles River) weighing between 180 g and 200 g were dosed orally with an invention compound (1-25 mg/kg, po) suspended in 0.5% Tween 80®. After an interval of 3 or 6 hours, the rats were anesthetized with metofane (n=4/group) and blood collected in heparinized tubes. White blood cell counts and differentials were made. One ml of blood from each animal was placed in a 5 ml plastic tube in a shaker bath at 37° C. A23187 at a final concentration of 10 μM was added to the blood and the blood vortexed and incubated for 15 min at […] with gentle shaking. Incubation was terminated by vortexing sample and centrifuging immediately at 1200 xG for 15 min at 4° C. The plasma was transferred to 15 ml plastic tubes each containing 8 ml of methanol to precipitate protein followed by vortexing. The samples were stored at -70 ° C. overnight and the next day the samples were centrifuged at 800 xG for 15 min to pellet the precipitate. The samples were dried in a Savant SpeedVac Concentrator Model SVC 200H and reconstituted to the original volume with cold RIA or ELISA buffer. The reconstituted samples were stored at -70° C. until assayed. The assay for LTB4 was performed according to the directions of the [^3 H]RIA kit or ELISA kit (Seragen). The total metabolite level in 1 ml of blood is calculated and reported as ng/10^6 neutrophils. Significance is determined by a one-way analysis of variance with LSD comparisons to control (p≤0.05).
# LTB4 Synthesis = test: Reverse Passive Arthus Reaction (pleurisy), LTB4 in pleural exudate; format: in vivo, rat (male Lewis); conditions: 10 mg/kg, p.o.
# Experimental: 3. Reverse Passive Arthus Reaction
# A reverse passive Arthus reaction is induced in the pleural cavity of male Lewis rats (150-200 g; fasted overnight prior to use) by the intravenous administration of bovine serum albumin (BSA; 4 mg/0.2 ml) followed 30 minutes later by the injection of rabbit anti-BSA (1 mg/0.2 ml; lyophilized IgG fraction; Organon Teknika, West Chester, Pa.) into the right pleural space under halothane anesthesia. Drugs or vehicle (0.5% Tween-80) control are administered orally in a volume of 1 ml/100 g body weight at 1 hour prior to the anti-BSA. Animals are sacrificed at either the time of peak eicosanoid production (i.e. 5 minutes after anti-BSA for immunoreactive TxB2, 10 minutes for immunoreactive LTB4, 20 minutes for immunoreactive LTC4) or at the time of peak neutrophil infiltration (4 hours after anti-BSA) by CO2 inhalation. The pleural cavity is then exposed., the fluid exudate removed by gentle vacuum aspiration and the volume of exudate is recorded. For the determination of cellular infiltration, the pleural cavity is rinsed with 3 ml of 0.1% EDTA in sterile saline, and the recovered wash is pooled with the exudate. Cell number is determined on a model ZBI Coulter counter. For determination of eicosanoid production, undiluted pleural exudate is microfuged and the supernatant is extracted with ethanol (8-10 times volume). Extracts are either stored at -20° C., or are evaporated to dryness under a stream of N2 and reconstituted in radioimmunoassay (RIA) buffer.
# Eicosanoids are quantitated by RIA according to the procedure specified by the RIA kit manufacturer (Advanced Magnetics, Cambridge, Mass.). Briefly, 100 μl of ^3 H-labeled eicosanoid and 100 μl of specific antibody are sequentially added to 100 μl of extracted pleural exudate in BGG-phosphate buffer which contains 0.01M phosphate, 0.1% bovine gamma globulin and 0.1% sodium azide at pH 7.0. Antibody-bound eicosanoid is separated from unbound eicosanoid by the addition of 750 μl of dextran (0.4%)-coated charcoal (Norit A) containing 0.1% sodium azide. The mixture is centrifuged at 2000 RPM at 5° C. for 15 minutes to pellet the charcoal and adsorbed unbound eicosanoid. Antibody-bound labeled eicosanoid is quantitated by counting in a liquid scintillation counter, and is correlated to concentration by a standard curve.
# [1] = tested on: LT-dependent bronchoconstriction; test: Inhibition of Bronchoconstriction in Guinea Pigs Induced by Exogenously Administered Antigen; format: in vivo, guinea pig (male); conditions: Cavia porcellus, 5 min, 5 min post-antigen challenge
# Experimental: 4. Inhibition of Brochoconstriction in Guinea Pigs Induced by Exogenously Administered Antigen
# Male guinea pigs (Charles River, Wilmington, Mass.) were sensitized 3-4 weeks prior to antigen challenge by administration of 2 i.m. injections of ovalbumin, 1 into each hind limb (35 mg total). Sensitized animals (500-600 g) were fasted overnight prior to experimentation. Conscious animals were then dosed p.o. with drug or vehicle alone (0.5% Tween 80 in H2 O) at the indicated times prior to antigen challenge, or anesthetized animals were dosed i.v. with drug or vehicle alone (DMSO) 5 min prior to antigen challenge. Animals were anesthetized by urethane (2.8 g/kg i.p.). A carotid artery and jugular vein were cannulated to allow for the monitoring of blood pressure and the administration of drugs, respectively. The trachea was then cannulated and connected to a Harvard Apparatus rodent ventilator (S. Natick, Mass.). Spontaneous respiration was abolished by the administration of succinylcholine (2.5 mg/kg i.v.). The animals were then ventilated with room air at a rate of 65 breaths per min. Airway inflation pressure was measured using a Statham pressure transducer (Gould Instruments, Cleveland, Ohio) connected to the tracheal cannula via a side-arm and recorded on a Grass Instruments recorder (Quincy, Mass.). The tidal volume (approximately 10 cc/kg) was adjusted to give a baseline inflation pressure of 8-10 cm H2 O at end inspiration. Animals were then allowed 20 min to stabilize.
# Following the stabilization period, animals were given i.v. injections of pyrilamine (5 mg/kg), propranolol (0.1 mg/kg) and indomethacin (10 mg/kg) at 15, 10 and 5 min, respectively, prior to antigen challenge. This pretreatment results in an LT-dependent bronchoconstriction following antigen challenge, which was accomplished by i.v. administration of ovalbumin (10 mg/kg). Only one bronchoconstriction per animal was induced. End-inspiratory inflation pressure (in cm H2 O over baseline) was measured at 5 min post-antigen challenge. A mean value and standard error for the % inhibition of control bronchoconstriction in each drug-treated group was then calculated.
# LDL = conditions: cell mediated and Cu^+2 mediated; cited from earlier work
# atherosclerotic lesions = conditions: WHHL rabbits; cited from earlier work
Structure (SMILES),inhibition at 1 µM (5-Lipoxygenase) [%],% Inhibition of LTB4 (Lipoxygenase; 5 mg/kg) [%],% Inhibition LTB4 Synthesis (LTB4 Synthesis) [%],% Inhibition of LTB4 (Lipoxygenase; 10 mg/kg) [%],"inhibition in vivo at 10 mg/kg ([1]; iv, 10 mg/kg i.v.) [%]","inhibition in vivo at 25 mg/kg ([1]; po, 25 mg/kg p.o.) [%]",inhibition of oxidative modification of LDL (LDL),inhibition of formation of atherosclerotic lesions (atherosclerotic lesions)
"Cc1oc(-c2ccc(C(F)(F)F)cc2)nc1COc1cccc(CN(O)C(N)=O)c1 [Example 2, 1-Hydroxy-1-[3-[5-methyl-2-(4-trifluoromethyl-phenyl)-oxazol-4-ylmethoxy]-benzyl]-urea]",48,45,59,–,–,–,–,–
"NC(=O)N(O)Cc1cccc(OCc2coc(-c3ccc(F)cc3)n2)c1 [Example 3, 1-[3-[2-(4-fluoro-phenyl)-oxazol-4-ylmethoxy]-benzyl]-1-hydroxy-urea]",74,–,–,85,84,26,–,–
CC(C)(Sc1cc(C(C)(C)C)c(O)c(C(C)(C)C)c1)Sc1cc(C(C)(C)C)c(O)c(C(C)(C)C)c1 [Probucol],–,–,–,–,–,–,inhibits both cell mediated and Cu^+2 mediated oxidative modification of LDL,inhibit the formation of atherosclerotic lesions in WHHL rabbits

# — patent US5468760A, “Aralkyl-N-hydroxyureas as inhibitors of 5-lipoxygenase and oxidation of low density lipoprotein” (American Home Products Corporation, priority 1993, dated 1995)
